For one data set, the system named is C5 convertase. Put plainly: C5 convertase activity on bio-C3b spheres, C5a measured with ECL assay. It is filed as biochemical. The settings on record: for ECL signal (amount of C5a produced by C5 convertase): C5 100 nM, 60 min. How it is done: The bio-C3b binding to streptavidin was performed in a 2.0 ml micro-centrifuge tube. Two hundred and forty μg of SPHEROTECH beads, 0.3 mm diameter. Streptavidin coated spheres were first washed by centrifugation with 300 μL of 10 mM Tris, pH 8, and then resuspended in 200 μL of 10 mM Tris, pH 8. The spheres were incubated with bio-C3b or C3b at a concentration of 320 nM. Spheres were suspended by gentle shaking at 1350 RPM for 20 minutes at room temperature, and collected by centrifugation at 16 RCF for 10 minutes. The residual supernatant was removed and the beads were then washed to remove residual unbound bio-C3b.
C5 convertase was formed on the spheres by incubating the bio-C3b spheres with a Convertase Solution that included components of the AP, a divalent cation and buffer. The Convertase Solution consisted of Factor D, (10 nM), Factor B (400 nM), and NiCl2 (200 μM) in 10 mM Tris, pH 8.0. The spheres were suspended by gentle shaking at 1350 RPM for 20 minutes at 37° C. The spheres were centrifuged at 16×g (RCF) for 10 minutes, the supernatant is removed, and the spheres are resuspended in 1.2 ml of 10 mM Tris pH 8, 1 mM EDTA to a final concentration of 200 μg/ml.
Formation of C5a was accomplished by incubating C5, and the spheres in a Reaction Solution that included a divalent cation. The Reaction Solution was prepared by transferring to a microplate well: (i) 2 μg of spheres with C5 convertase in 10 μl of the Convertase Solution; (ii) 20 μL of a 500 μM NiCl2 solution; and (iii) 20 μL of a 250 nM solution of C5 (5 pmoles). […] Following the incubation, the reaction was stopped by adding 10 μL of a 500 mM EDTA in 10 mM Tris, pH=8.0; (Total Volume=60 μl).
The amount of C5a in the Reaction Solution was measured with an Elisa-like assay, similar to an ELISA. The neo-epitope anti-C5a antibody, BNJ383, captured soluble C5a, binding it to a well in a microplate. BNJN383 has a high affinity for C5a but a low affinity for C5. The detection reagent was a mouse anti-C5a antibody that binds the C5a captured on the plate, and a SULFO-TAG™ modified anti-mouse secondary antibody that bound the mouse antibody, and generated an ECL signal.
To wells of a high binding 96-well microplate (MSD Catalog No. L15XB-3) was added BNJ383 (0.3 pmoles,) 2 μg/mL in 25 μL of a carbonate-bicarbonate buffer at pH 9.4. The microplate was sealed and incubated at 37′C for 60 minutes. […]
The wells were sealed with a foil seal and incubated in the dark for 30 minutes. […] One hundred and fifty μL of 2×MSD Read Buffer containing tripropylamine as an electron carrier was added to the wells using a negative pipetting technique. The microplate was read on an MSD imager to measure the ECL signal generated by the SULFO-TAG™ affixed to the goat secondary antibody. […]

The target of a further data set is T1, Factor D (Homo sapiens, UniProt P00746).
T1 construct: purchased COMPTECH (Tyler Tex.)
T1 sequence (P00746 26-253): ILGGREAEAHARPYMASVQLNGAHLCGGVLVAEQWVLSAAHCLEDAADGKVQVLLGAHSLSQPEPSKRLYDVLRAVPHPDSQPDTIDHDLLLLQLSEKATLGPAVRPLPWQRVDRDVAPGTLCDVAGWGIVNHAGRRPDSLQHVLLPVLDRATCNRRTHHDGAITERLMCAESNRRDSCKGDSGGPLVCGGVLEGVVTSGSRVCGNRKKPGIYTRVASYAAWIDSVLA
Put plainly: BLI biosensor assay of Factor D cleavage of Factor B, anti-Bb antibody binding. Format: biochemical. A general note: Biolayer interferometry detects binding as a change in optical thickness at a sensor tip.

Method for Factor D: All measurements were recorded on an OCTET® RED System set to the advanced quantitation mode. The biosensors were SA-Streptavidin DIP AND READ™ configured to a 96-well microplate format (FORTEBIO). All loading volumes were 200 μl.
Eight streptavidin-coated biosensors were incubated with bio-C3b (10 μg/ml), and Factor B (0.6 μM) in Kinetics Buffer with 1 mM NiCl2 for 6 minutes.
To form bio-C3b/Bb, each biosensor was loaded with a mixture of BioC3b (10 μg/mL), factor B (600 nM) and Ni^2+ (1 mM) in Kinetics Buffer. […] The incubation time was 2 minutes.
The presence of Bb on the biosensor was detected by loading the biosensors with 55 nM of an anti-Bb antibody (Quidel, A227) and 55 nM Goat anti-mouse secondary antibody in Kinetics Buffer. The incubation time was 2 minutes.
From time 0 to about 360 seconds (˜6 minutes), the 269 kDa bio-C3b/Factor B complex formed on the streptavidin coated biosensor. […] From about 360 to about 480 seconds (˜2 minutes), Factor D cleaved Factor B into fragments Ba and Bb. […] The binding of the 300 kDa primary and secondary antibody complex to the Bb fragment was recorded as a positive wavelength shift from about 600 to 720 seconds (˜2 minutes).

With “OmCI: tick saliva complement inhibitor, a C5 binding protein”, in the data set with C5 convertase (OmCI 50 nM), the “Effect on convertase activity (in words)” value is “essentially no effect” and the “ECL signal (amount of C5a produced by C5 convertase)” value is reported as 40,000. Moreover, in the data set with C5 convertase (OmCI 100 nM), the “drop of ECL signal” value amounted to 8 fold and the “ECL signal (amount of C5a produced by C5 convertase)” value was determined as 5000.

As to `O=c1oc(Cl)c(Cl)c2ccccc12` [DCIC, 3,4-Dichloroisocoumarin], at Factor D (DCIC 23 μM and 35 μM), the “Effect on Factor D activity (in words)” value was “minimal effect”. On Factor D (DCIC 178 μM, 267 μM and 400 μM), the “Inhibition of Factor D (in words)” value is on record as “maximally inhibited”.

(Values after patent US20180074077A1, “A METHOD FOR MEASURING THE PROTEASE ACTIVITY OF FACTOR D OF THE ALTERNATIVE COMPLEMENT PATHWAY” (priority 2015, published 2018).)
